BindingDB's records for doi:10.1021/bi1006354 (Beactica, 2010)
pKd: −log10 of the molar value. Several values for one entry are separate records, joined by “and”; a condition that tells them apart may be missing. Equal entries are not always repeated.

Molecular target: Acetylcholine-binding protein (Lymnaea stagnalis, UniProt P58154)
Experiment: Interaction Assay
Settings: pH 7.4; 25 °C
From the text: Interaction assay using AChBP.

Acetylcholine-binding protein, sequence (P58154 whole entry): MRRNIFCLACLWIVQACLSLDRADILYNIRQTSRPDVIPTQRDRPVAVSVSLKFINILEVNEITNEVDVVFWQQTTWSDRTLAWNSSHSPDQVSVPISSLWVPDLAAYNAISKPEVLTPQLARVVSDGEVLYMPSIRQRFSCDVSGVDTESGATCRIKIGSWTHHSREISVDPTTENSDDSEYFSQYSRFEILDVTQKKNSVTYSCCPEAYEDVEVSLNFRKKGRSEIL

Compound	pKd
CC(=O)OCC[N+](C)(C)C [2-acetoxyethyl(trimethyl)ammonium;perchlorate]	6.34 and 5.41
O=C(N[C@@H]1C2CCN(CC2)C1Cc1cccnc1)c1cc2ccccc2o1 (stereo not given in full) [Quinuclidine analogue, 5]	7.89
O=C(N[C@@H]1C2CCN(CC2)C1Cc1cccnc1)c1ccccc1 (stereo not given in full) [Quinuclidine analogue, 3]	6.85
N[C@@H]1C2CCN(CC2)C1Cc1cccnc1 (stereo not given in full) [Quinuclidine analogue, 2]	6.46
CN(C)CCc1cccnc1 [Quinuclidine analogue, 1]	5.37
